In US20150132405A1, “SYNERGISTIC COMPOSITIONS OF MONOCHLOROUREA AND MODIFIED MONOCHLOROUREAS” (HERCULES INCORPORATED, priority 2013, published 2015):
Values after ≈ are worked out from the molar mass of the structure shown. Like-named read-outs stand apart in the source and are kept apart here.

Test system: Escherichia coli
Test: Minimal Inhibitory Concentration (MIC), two-fold dilution series in 96 well microplate
Assay type: cell-based
Settings: for MIC (QA), used alone: first biocide used alone
From the text: While there are various methods known to individuals skilled in the art for measuring levels of antimicrobial activity, in the following examples the endpoint used is known as the Minimal Inhibitory Concentration, or MIC. This is the lowest concentration of a substance or substances which can achieve complete inhibition of growth.
In order to determine the Minimal Inhibitory Concentration, a two-fold dilution series of the biocide is constructed with the dilutions being made in growth media. The dilutions are made in a 96 well microplate such that each well has a final volume of 280 μl of media and biocide. The first well has, for example, a concentration of 1000 ppm biocide, the second 500 ppm, the third 250 ppm, and so forth, with the 12th and final well in the row having no biocide at all and serving as a positive growth control. After the dilution series is constructed the wells receive an inoculum of microbe suspended in growth media such that the final concentration of microbes in the well is ˜5×10^5 cfu/ml. In these examples the test microbe used is Escherichia coli. The cultures are incubated at an appropriate temperature for 18-24 hours, and the wells scored as positive or negative for growth based on a visual examination for turbid wells.

[1] = Escherichia coli, second biocide used alone, complete inhibition of growth, 18-24 hours, read-out: MIC (QB), used alone
[2] = second biocide used alone, complete inhibition of growth, 18-24 hours
[3] = Escherichia coli, used alone, Table 26
[4] = complete inhibition of growth, 18-24 hours

Molecule: CC1(C)C(=O)N(Cl)C(=O)N1Br [BCDMH, 1-bromo-3-chloro-5,5-dimethylhydantoin]
- MIC [1]: 61 µg/mL (≈ 253 µM)

Molecule: O=[N+]([O-])C(Br)(CO)CO [BNPD, 2-bromo-2-nitropropane-1,3,-diol]
- MIC (QB), used alone [2]: 24 ppm

Molecule: N#CC(Br)(Br)C(N)=O [DBNPA, 2,2-dibromo-3-nitrilopropionamide]
- MIC [1]: 11 µg/mL (≈ 45.5 µM)

Molecule: CNC(=O)N(C)Cl [DMCU, dimethyl monochlorourea]
- DMCU MIC (QA), used alone [3]: 10 ppm
- DMCU MIC (QA), used alone (Escherichia coli, used alone, Table 27): 10 ppm
- DMCU MIC (QA), used alone (Escherichia coli, used alone, Table 28): 10 ppm
- MIC (QA), used alone [4]: 10 ppm
- MIC (QB), used alone [2]: 10 ppm

Molecule: O=CCCCC=O [GLUT, glutaraldehyde]
- MIC [1]: 45 µg/mL (≈ 449 µM)
- MIC (Escherichia coli, used alone, Table 28, read-out: GLUT MIC (QB), used alone): 45 µg/mL (≈ 449 µM)

Molecule: OO [H2O2, hydrogen peroxide]
- MIC (QB), used alone [2]: 1000 ppm

Molecule: N#CSCSC#N [MBT, methylene bisthiocyanate]
- MIC (Escherichia coli, read-out: MIC (QB), used alone): 8 µg/mL (≈ 61.4 µM)

Molecule: NCl [MCA, monochloramine]
- MIC (QB), used alone [2]: 47 ppm

Molecule: NC(=O)NCl [MCU, monochlorourea]
- MIC (QA), used alone [4]: 100 ppm
- MIC (QB), used alone [2]: 100 ppm

Molecule: N-alkyl (C12-C16)-N,N-dimethyl benzylalkonium chloride [QAC]
- QAC MIC (QB), used alone [3]: 27 ppm
- MIC (QB), used alone [2]: 27 ppm

Molecule: methyl monochlorourea [MMCU]
- MIC (QB), used alone [2]: 16 ppm
